{"source": "paper PMC8968665", "about": "“Verteporfin is a substrate-selective γ-secretase inhibitor that binds the amyloid precursor protein transmembrane domain” (The Journal of Biological Chemistry, 2022)", "key": {"[1]": {"target": "T1, γ-secretase cleavage of C100-Flag (C99) (Homo sapiens, UniProt P05067)", "T1 construct": "C100 is C99 with an added N-terminal Met residue; made in house", "T1 sequence (P05067 672-770 limits assumed)": "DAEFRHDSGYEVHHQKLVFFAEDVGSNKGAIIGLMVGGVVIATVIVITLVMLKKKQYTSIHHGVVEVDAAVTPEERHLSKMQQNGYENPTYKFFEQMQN", "test": "γ-Secretase IC50 measurement, Aβ40 sandwich ELISA", "assay_type": "biochemical", "conditions": "1 nM purified γ-secretase, 2 µM C100-Flag, 2 h, 37 °C, n=1, error of the fit; read-out: IC50, inhibition of Aβ40 production", "method": "Purified γ-secretase was diluted in standard assay buffer to specified concentrations and incubated at 37 °C for 30 min, followed by the addition of stock solution of verteporfin in DMSO to achieve various final verteporfin concentrations and 2% final DMSO concentration. Purified C99 FLAG was then added to start the proteolytic reactions, which were incubated for 2 h at 37 °C. The concentrations of Aβ40 produced during the proteolysis of C100 FLAG by γ-secretase were determined using a specific sandwich ELISA (Invitrogen). Aβ40 concentrations were plotted as a function of verteporfin concentration, and the resultant sigmoidal curves were fitted to Equation 5 to determine IC50 values ([80], [83]).(5) Y=Min+(Max−Min)/1+(X/IC50)^HillCoefficient"}, "[2]": {"tested_on": "T2, Notch-1 TM/JM (residues 1721–1771)", "T2 construct": "flanked by its juxtamembrane segments (residues 1721–1771, “Notch-1 TM/JM”); made in house; host or cells: E. coli BL21DE3 Star, pET21b", "test": "TROSY NMR titration of Notch-1 TM/JM by verteporfin", "assay_type": "binding", "method": "A Bruker Avance III 600 MHz NMR spectrometer equipped with a cryoprobe (CPTCI) and automated sample changer (SampleJet) was used to collect NMR spectra. Sample details are described above. For high-throughput screening data collection, the ^15N-^1H BEST-TROSY (b_trosy3gpph.2) experiment with 64 scans for each of 96 increments and a relaxation delay of 200 ms was run at 318 K for a total data acquisition time of 35 min per sample. To achieve enhanced signal-to-noise ratio, follow-up titrations and control experiments were conducted using the BEST-TROSY pulse program with 200 scans per 96 increments at 318 K, for a total data acquisition time of 110 min per sample. Data were processed using Bruker Topspin 3.6 using a Gaussian window function with a line broadening of -10 and a Gaussian max of 0.1 in both dimensions. NMR data were then further processed and analyzed using NMR-FAM SPARKY, plotted using GraphPad Prism 9, and prepared for publication figures using Affinity Designer.\n2D ^15 N-^1H HSQC NMR data used to calculate dissociations constant (KD) values by first normalizing 2D data using the established formula ([78]) (Equation 1):(1) δ(1H,15N)=√(1/2[δ2H+.14∗δ2N]) Where δ(1H,15N) is the square root of linear chemical shifts in each respective dimension, δH and δN with the Nitrogen normalization factor of 0.14."}, "C99": {"tested_on": "T3, C99", "T3 construct": "the transmembrane 99 residue C-terminal (C99) domain; His tag (either the C-terminal hexa-His that is kept, or the N-terminal His of C99-NT2 removed by thrombin); made in house; host or cells: E. coli BL21DE3", "test": "Native ion mobility–mass spectrometry of C99–verteporfin mixtures", "design": "species or system human", "from_the_text": "IM-MS data were collected using a Synapt G2 HDMS IM-Q-ToF mass spectrometer (Waters), with a direct infusion nESI source set to positive ion mode. The instrument settings were tuned to generate intact C99–verteporfin complex ions while completely dissociating them from detergent LMPG micelles, including appropriately tuned settings for the sampling cone 80 V, trap cell accelerating potential 80 V, and the transfer cell accelerating potential 70 V. The trapping cell wave velocity and height were 116 m/s and 0.1 V, respectively. The IMS wave velocity and height were 250 m/s and 15 V, respectively. The transfer cell wave velocity and height were 300 m/s and 10 V. Prior to analysis, C99 in LMPG micelles at a protein concentration of 20 μM C99 and 100X CMC LMPG or DDMB samples were prepared by incubating 20 μM C99 with 100X CMC LMPG for 30 min, then titrating in DMSO or Verteporfin and incubating in the dark overnight. Verteporfin-binding buffer conditions were 200 mM Ammonium Acetate at pH 4.5."}}, "note": "“Also recorded” adds a separate entry of the source.", "data": [{"substance": "verteporfin", "values": [{"measurement": "IC50", "setting": "[1]", "value": "15 ± 1", "unit": "µM"}, {"measurement": "binding to Notch-1 TM/JM", "setting": "[2]; D6PC/DMPC bicelles", "value": "only minor spectral changes at very high concentrations; also recorded: does not bind"}, {"measurement": "binding to Notch-1 TM/JM", "setting": "[2]; DDMB micelles", "value": "little change in the spectrum of Notch-1 until a concentration of 300 μM; also recorded: does not bind"}, {"measurement": "binding to Notch-1 TM/JM", "setting": "[2]; LMPG micelles, same conditions as C99 titration", "value": "does not bind; also recorded: only minor perturbations of Notch resonances"}, {"measurement": "binding to Notch-1 transmembrane domain", "setting": "[2]; general statement", "value": "did not bind; also recorded: not to bind"}, {"measurement": "change in C99 oligomeric state (IM-MS)", "setting": "C99; LMPG and DDMB micelles, 0–50 μM verteporfin, low detergent conditions, n = 3", "value": "only a marginal increase in the population of dimeric C99; also recorded: does not undergo any significant change in oligomeric state"}, {"measurement": "covalent modification of C99 (mass by IM-MS)", "setting": "C99; samples kept in the dark", "value": "no covalent modification"}]}]}
